Results on four molecules are retold here after patent publication US12098411B2, “Exogenous ketone blend compositions for delivery of ketone bodies” (KetoneAid, Inc., priority 2016, dated 2024).

The conditions of data set [1]: cited from earlier work.
Data set [2] can be described thus: Ketone blood concentration after ingestion of 1,3-butanediol (FIG. 5, FIG. 6). In kind it is in vivo, human. The text has this:
FIG. 5 depicts an exemplary ketone blood concentration after ingestion of racemic 1,3-butanediol.
FIG. 6 depicts a ketone blood concentration after one person ingested (D)-1,3-butanediol, compared to the results of two people ingesting racemic 1,3-butanediol.
It should also be noted that only the D enantiomer is active in the body as a source of extracellular fuel that is then transported into the cells. Ketone blood level meters currently on the market only measure the blood level of the D enantiomer. Products containing racemic salts require two to three times the amount of sodium, calcium and potassium for an equal amount of (D)-β-hydroxybutyrate. A reason the potential levels of (D)-β-hydroxybutyrate in the blood is over double compared with an equal amount of the racemic solutions is because the body has to waste energy and uses up some of the (D)-β-hydroxybutyrate to burn off the unnatural (L)-β-hydroxybutyrate.
FIG. 5 depicts exemplary results from ingestion of 33 ml racemic 1,3-butanediol. […] For example, as shown, 33 ml of the non-racemic (D) form provided an increase in ketones of approximately 3.2 mmol/L whereas the racemic form provided approximately 0.9-1.0 mmol/L increases over pre consumption ketone levels.

The subject of data set [3] is pyruvate dehydrogenase impairment. Put plainly: Relief of fatigue and cognitive impairment in persons suffering with ALS. The data set is classed as in vivo, human. The source says:
Persons suffering with ALS display chronic fatigue and chronic cognitive impairment. The mechanism of impairment has been traced to an impairment with pyruvate dehydrogenase in the mitochondria. Cells of the central nervous system, the heart and skeletal muscles, due to the impairment, lack the critical energy or ATP to function normally. (D)-β-hydroxybutyrate circumvents the pyruvate dehydrogenase impairment and provides for far higher energy and ATP creation in those cells. […] The dosing regimen should be between 5-60 grams 1-3 times per day with the preferred amount to be between 20-40 grams 3 times per day.

Like-named read-outs stand apart in the source and are kept apart here. Some results are limits rather than exact numbers.

On to `CC(O)CC(=O)[O-].[K+]` (racemic) [racemic potassium β-hydroxybutyrate, potassium β-hydroxybutyrate], for which, in data set [1] (consumed at about 100% of potassium's RDA), the blood ketones reachable entry was “approximately 0.5 mmol/L”.
Regarding `CC(O)CC(=O)[O-].[Na+]` (racemic) [racemic sodium β-hydroxybutyrate, sodium β-hydroxybutyrate], the blood ketones reachable result in data set [1] (consumed at about 100-200% of the RDA for sodium) was “approximately 0.5 mmol/L”.
`CC(O)CCO` (centres unmarked) [(D)-1,3-butanediol]: in data set [2] (33 ml each, over a 120 minute period), the “amount of ketones (mmol) in the blood relative to racemic 1,3-butanediol” value is given as “over double”. Besides, in data set [2] (ingestion of 33 ml), the “increase in ketones over pre consumption ketone levels” value was “approximately 3.2 mmol/L”.
For the molecule `C[C@@H](O)CC(=O)O` [(D)-β-hydroxybutyrate], the “time to significant reduction of fatigue and cognitive impairment after ingestion” value in data set [3] was no more than 15 min.
